From the supplement of paper PMC10331698
± gives the standard deviation of the averaged measurements.

Tests used:
Experiment in all cases: level (log10 ratio to DMSO vehicle control); higher = higher biomarker level / cell amount than vehicle control
[1] = compound: OCCCCC(F)(F)C(F)(F)C(F)(F)C(F)(F)F [4:4 Fluorotelomer alcohol]; conditions: in DMSO
Protocol: (§1)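 BioMAP Diversity Plus panel of 12 human primary cell co-culture systems (3C, 4H, LPS, SAg, BT, BF4T, BE3C, CASM3C, HDF3CGF, KF3CT, MyoF, Mphg). Compounds were added 1 h before stimulation and left for 24 h (MyoF 48 h; BT 72 h for soluble read-outs or 6 d for IgG). Biomarkers were read by ELISA, cytotoxicity by SRB, PBMC viability and proliferation by Alamar Blue. Each well value was divided by the mean of 8 DMSO control wells on the same plate and log10 transformed; duplicate blinded samples were tested at 4 concentrations.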

Tetrafluorosuccinic acid = compound: O=C(O)C(F)(F)C(F)(F)C(=O)O [Tetrafluorosuccinic acid]; conditions: in DMSO
Protocol: as §1

Methotrexate = compound: CN(Cc1cnc2nc(N)nc(N)c2n1)c1ccc(C(=O)N[C@@H](CCC(=O)O)C(=O)O)cc1 [Methotrexate]; conditions: in DMSO
Protocol: as §1

[2] = compound: OCCC(F)(F)C(F)(F)C(F)(F)C(F)(F)C(F)(F)C(F)(F)C(F)(F)C(F)(F)F [8:2 Fluorotelomer alcohol]; conditions: 6700 nM; in DMSO
Protocol: as §1

Perfluorooctanoic acid = compound: O=C(O)C(F)(F)C(F)(F)C(F)(F)C(F)(F)C(F)(F)C(F)(F)C(F)(F)F [Perfluorooctanoic acid]; conditions: in DMSO
Protocol: as §1

[3] = compound: FC(F)(F)COC(OCC(F)(F)F)OCC(F)(F)F [tris(Trifluoroethoxy)methane]; conditions: in DMSO
Protocol: as §1

[4] = compound: OCC(F)(F)C(F)(F)C(F)(F)C(F)(F)C(F)(F)C(F)(F)C(F)(F)C(F)(F)CO [1H,1H,10H,10H-Perfluorodecane-1,10-diol]; conditions: in DMSO
Protocol: as §1

Test System | level (log10) ([1]; 6700 nM) | level (log10) ([1]; 20000 nM) | level (log10) ([1]; 60000 nM) | level (log10) (Tetrafluorosuccinic acid; 6700 nM) | level (log10) (Tetrafluorosuccinic acid; 20000 nM) | level (log10) (Tetrafluorosuccinic acid; 60000 nM) | level (log10) (Methotrexate; 1500 nM) | level (log10) (Methotrexate; 4400 nM) | level (log10) (Methotrexate; 13000 nM) | level (log10) (Methotrexate; 40000 nM) | level (log10) [2] | level (log10) (Perfluorooctanoic acid; 6700 nM) | level (log10) (Perfluorooctanoic acid; 20000 nM) | level (log10) (Perfluorooctanoic acid; 60000 nM) | level (log10) ([3]; 6700 nM) | level (log10) ([3]; 20000 nM) | level (log10) ([3]; 60000 nM) | level (log10) ([4]; 6700 nM) | level (log10) ([4]; 20000 nM) | level (log10) ([4]; 60000 nM)
BE3C:tPA | -0.0075 ± 0.00071 | -0.013 ± 0.038 | 0.015 ± 0.021 | -0.037 ± 0.023 | -0.0505 ± 0.026 | -0.0365 ± 0.022 | 0.012 ± 0.0071 | -0.004 ± 0.075 | 0.0085 ± 0.091 | 0.0215 ± 0.033 | -0.064 ± 0.013 | -0.0515 ± 0.025 | -0.0285 ± 0.036 | -0.038 ± 0.0085 | -0.0075 ± 0.013 | -0.028 ± 0.024 | -0.0125 ± 0.021 | 0.073 ± 0.021 | 0.097 ± 0.011 | -0.108
HDF3CGF:CD106/VCAM-1 | -0.028 ± 0.083 | -0.0125 ± 0.04 | -0.0215 ± 0.0021 | 0.003 ± 0.027 | -0.029 ± 0.037 | -0.033 ± 0.045 | 0.028 ± 0.031 | 0.01 ± 0.03 | 0.0355 ± 0.069 | -0.0225 ± 0.1 | -0.0265 ± 0.015 | -0.0055 ± 0.005 | -0.011 ± 0.017 | -0.024 ± 0.013 | 0.0315 ± 0.018 | -0.0275 ± 0.021 | -0.0325 ± 0.059 | -0.038 ± 0.016 | -0.0995 ± 0.073 | -0.322
KF3CT:uPA | 0.01 ± 0.016 | -0.0005 ± 0.00071 | 0.0005 ± 0.022 | -0.012 ± 0.0071 | 0.0025 ± 0.0064 | -0.0285 ± 0.00071 | -0.0115 ± 0.0021 | -0.0195 ± 0.00071 | -0.031 ± 0.057 | -0.045 ± 0.059 | 0.0155 ± 0.0078 | 0.0095 ± 0.0021 | 0.012 ± 0.0042 | 0.013 ± 0.017 | -0.0005 ± 0.043 | -0.011 ± 0.018 | -0.014 ± 0.023 | 0.007 ± 0.0042 | 0.009 ± 0.0071 | -0.021
MyoF:Collagen III | 0.0085 ± 0.012 | 0.0015 ± 0.0078 | 0.003 ± 0.017 | -0.013 ± 0.016 | -0.0205 ± 0.005 | -0.016 ± 0.0099 | -0.011 ± 0.04 | -0.001 ± 0.065 | 0.009 ± 0.069 | 0.014 ± 0.041 | -0.0205 ± 0.021 | 0.007 ± 0.0028 | -0.001 ± 0.0071 | -0.039 ± 0.0099 | 0.0035 ± 0.0035 | -0.0005 ± 0.019 | 0.009 ± 0.0042 | -0.0305 ± 0.0092 | -0.042 ± 0.0099 | -0.378
3C:CD106/VCAM-1 | -0.01 ± 0.0057 | -0.01 ± 0.016 | -0.0015 ± 0.0035 | -0.015 ± 0.014 | -0.015 ± 0.011 | -0.0105 ± 0.018 | -0.0115 ± 0.044 | -0.005 ± 0.021 | 0.0055 ± 0.035 | -0.0135 ± 0.026 | -0.035 ± 0.061 | -0.0435 ± 0.053 | -0.0325 ± 0.05 | -0.013 ± 0.067 | -0.002 ± 0.016 | -0.0045 ± 0.019 | 0.0095 ± 0.0078 | -0.023 ± 0.0071 | -0.0225 ± 0.0021 | -0.052
HDF3CGF:SRB | 0.0015 ± 0.036 | -0.0165 ± 0.0064 | 0.006 ± 0.018 | -0.0125 ± 0.011 | -0.013 ± 0.03 | 0.007 ± 0.044 | 0.018 ± 0.034 | -0.0135 ± 0.0035 | 0.025 ± 0.011 | 0.014 ± 0.016 | -0.0335 ± 0.035 | -0.0075 ± 0.026 | 0.0325 ± 0.043 | -0.0245 ± 0.056 | 0.003 ± 0.073 | 0.0335 ± 0.0035 | 0.02 ± 0.038 | -0.0485 ± 0.021 | -0.0255 ± 0.091 | -0.224
MyoF:CD106/VCAM-1 | -0.004 ± 0.016 | -0.01 ± 0.018 | -0.0055 ± 0.0078 | -0.0095 ± 0.016 | 0.0005 ± 0.019 | -0.015 ± 0.0085 | 0.0165 ± 0.015 | -0.0045 ± 0.013 | 0.038 ± 0.024 | 0.0095 ± 0.0092 | -0.026 ± 0.016 | 0.0065 ± 0.011 | 0.004 ± 0.0028 | 0.0095 ± 0.00071 | -0.021 ± 0.034 | -0.03 ± 0.028 | -0.034 ± 0.0057 | 0.0025 ± 0.021 | -0.0025 ± 0.025 | -0.19
